Values joined by “and” are separate entries in the source; they are usually repeats but may differ in a detail not shown here. Identical values can stand only once.
Conditions: Liquid, Distillation

CC(O)CNCC(C)O (centres undefined) [N-(2-hydroxypropyl)-2-hydroxy-1-propanamine]
Conditions	vapor or sublimation pressure
420 K	2.8 kPa
422 K	3 kPa and 3.1 kPa
428 K	4 kPa and 4.4 kPa
429 K	4.1 kPa
433 K	4.9 kPa and 5.1 kPa
437 K	5.9 kPa
440 K	6.8 kPa
441 K	7 kPa
444 K	7.8 kPa and 7.9 kPa
447 K	8.9 kPa
448 K	9.9 kPa
449 K	9.9 kPa
450 K	10.1 kPa
451 K	10.6 kPa and 10.8 kPa
452 K	10.9 kPa
453 K	11.9 kPa
454 K	11.8 kPa and 11.9 kPa
456 K	12.9 kPa
457 K	13.1 kPa and 13.9 kPa
458 K	13.9 kPa and 14 kPa
460 K	14.9 kPa
461 K	15.8 kPa
464 K	17.2 kPa
465 K	17.9 kPa

From the NIST ThermoML archive (doi:10.1016/j.fluid.2012.11.009)
